The text below walks through data of patent publication US8715537B2, “Molecular precursor methods and materials for optoelectronics” (Precursor Energetics, Inc., priority 2009, dated 2014).

The nature of data set [1]: Thermogravimetric analysis (TGA): transition of molecular precursor into material. The class given is physicochemical. Particulars: for TGA transition ending (completed) temperature / TGA transition midpoint: transition of precursor into material; for TGA yield for the transition: residue at end of transition; for TGA yield at 400° C.: at about 400° C. How it is done:
Thermogravimetric analysis (TGA) was performed using a Q50 Thermogravimetric Analyzer (TA Instruments, New Castle, Del.). NMR data were recorded using a Varian 400 MHz spectrometer.

Data set [2] in a line: Solubility of molecular precursor in organic solvents. The class given is physicochemical. The settings on record: for Solubility: THF: solvent THF; for Solubility: benzene: solvent benzene; for Solubility: benzene / Solubility: toluene: 'heat'; for Solubility: diethyl ether: solvent diethyl ether; for Solubility: pentane: solvent pentane; for Solubility: toluene: solvent toluene; for Solubility: CHCl3: solvent CHCl3.

In the case of Ag—(Se^tBu)3In^iPr [Example 28], in data set [1], the “TGA transition ending (completed) temperature” value (shortened to “TGA transition ending”) is “about 205 °C” and the “TGA yield for the transition” value is listed as 56.2 % (w/w).

Regarding Cu—(Se^tBu)3In^sBu [Example 14], in data set [1], the “TGA transition ending” value turned out to be 204 °C, the TGA transition midpoint amounted to 191 °C and the “TGA yield for the transition” value was 52.3 % (w/w).

For Cu—(S^tBu)3In^tBu [Example 4], in data set [1], the “TGA transition ending” value was “about 240 °C” and the “TGA yield for the transition” value is on record as 48.1 % (w/w). In data set [2], the “Solubility: THF” value is given as “ss”, the “Solubility: benzene” value is given as “ss heat”, the “Solubility: diethyl ether” value is given as “nil” and the “Solubility: pentane” value is “nil”. For the same substance, the “Solubility: toluene” value in data set [2] was “s heat”.

In the case of Ag—(Se^tBu)3Ga^sBu [Example 27], in data set [1], the “TGA transition ending” value was “about 195 °C”, the “TGA yield at 400° C.” value is reported as 45.1 % (w/w) and the “TGA yield for the transition” value was 50.4 % (w/w).

Cu—(Se^tBu)3In^iPr [Example 8]: in data set [1], the “TGA transition ending” value came out at 199 °C, the TGA transition midpoint worked out at 192 °C and the “TGA yield for the transition” value is reported as 52.1 % (w/w). Besides, in data set [2], the “Solubility: benzene” value is on record as “heat”, the “Solubility: diethyl ether” value was “ss” and the “Solubility: pentane” value was “nil”.

Regarding Ag—(Se^tBu)3Ga^nBu [Example 25], in data set [1], the “TGA transition ending” value is “about 210 °C”, the “TGA yield at 400° C.” value is reported as 47.7 % (w/w) and the “TGA yield for the transition” value is listed as 53.9 % (w/w).

Turning to Cu—(S^tBu)3In^iPr [Example 1], in data set [1], the “TGA transition ending” value worked out at 227 °C, the TGA transition midpoint was found to be 220 °C and the “TGA yield for the transition” value is 50.4 % (w/w). Also, in data set [2], the “Solubility: benzene” value is “s heat”, the “Solubility: diethyl ether” value is “ss” and the “Solubility: pentane” value is given as “nil”.

For Cu—(Se^tBu)3In^nBu [Example 3], in data set [1], the “TGA transition ending” value turned out to be 196 °C, the TGA transition midpoint is 174 °C and the “TGA yield for the transition” value is 48.5 % (w/w). In data set [2], the “Solubility: CHCl3” value was “vs”, the “Solubility: THF” value is listed as “vs”, the “Solubility: benzene” value was “vs” and the “Solubility: diethyl ether” value was “vs”. Further, the “Solubility: toluene” value in data set [2] is recorded as “vs”.

Take Cu—(Se^tBu)3Ga^tBu [Example 5]: in data set [1], the “TGA transition ending” value is “about 210 °C” and the “TGA yield for the transition” value is recorded as 48.3 % (w/w). Moreover, in data set [2], the “Solubility: benzene” value is on record as “ss heat”, the “Solubility: diethyl ether” value is recorded as “nil”, the “Solubility: pentane” value is on record as “nil” and the “Solubility: toluene” value is “s heat”.

With Cu—(Se^tBu)3In^tBu [Example 7], in data set [1], the “TGA transition ending” value was “about 192 °C” and the “TGA yield for the transition” value is listed as 53.1 % (w/w). In addition, in data set [2], the “Solubility: THF” value is on record as “ss”, the “Solubility: benzene” value is recorded as “ss heat”, the “Solubility: diethyl ether” value is given as “nil” and the “Solubility: pentane” value is “nil”. Besides, in data set [2], the “Solubility: toluene” value is “heat”.

Regarding Cu—(S^tBu)2(S^tBu)In^tBu [Example 9], in data set [1], the “TGA transition ending” value came to 295 °C, the TGA transition midpoint amounted to 235 °C and the “TGA yield for the transition” value was 47.9 % (w/w).

In the case of Cu—(S^tBu)3Ga^iPr [Example 12], in data set [1], the “TGA transition ending” value came out at 220 °C and the “TGA yield for the transition” value was 46.0 % (w/w).

Turning to Cu—(S^tBu)3In^nBu [Example 2], in data set [1], the “TGA transition ending” value was determined as 248 °C, the TGA transition midpoint is 235 °C and the “TGA yield for the transition” value is on record as 50.4 % (w/w). Moreover, in data set [2], the “Solubility: CHCl3” value is “vs”, the “Solubility: THF” value is “vs”, the “Solubility: benzene” value was “vs” and the “Solubility: diethyl ether” value is “vs”. The “Solubility: toluene” value in data set [2] is on record as “vs”.

In the case of Ag—(Se^tBu)3In^nBu [Example 24], in data set [1], the “TGA transition ending” value was “about 205 °C”, the “TGA yield at 400° C.” value is reported as 52.5 % (w/w) and the “TGA yield for the transition” value is on record as 54.6 % (w/w).

On to Ag—(Se^tBu)3In^sBu [Example 26], for which, in data set [1], the “TGA transition ending” value was “about 195 °C” and the “TGA yield for the transition” value is 54.9 % (w/w).
